According to patent US9586904B2, “Preparation of (−)-huperzine A” (priority 2013, dated 2017):

Test: Solubility of huperzine A-chiral acid salts and of (±)-huperzine A in solvents
Assay type: physicochemical
Text: This invention first prepared a series of huperzine A-chiral acid salts.

Q: For (±)-huperzine A, which “solubility in most solvents” value (most solvents) is on record?
A: Its value is “rather poorly soluble”.

Q: And the “solubility in various single solvents” value (various single solvents, during salt formation)?
A: Its value is “very poor”.
